“Also recorded” adds a separate entry of the source.
Experiments:
[1] = test system: Human Hair Dermal Papilla Cells (HHDPCs); test: in vitro impedance (cell dielectric spectroscopy, CellKey) assay with human dermal papilla cells; format: cell-based; settings: 10^−5 to 10^−12 M, impedance measured over 20 minutes, three independent experiments
Experimental: In this example, the lack of activity of the compound according to Formulas I and II is shown. In general, bimatoprost or the compound of Formula I was incubated at concentrations from 10^−5 and 10^−12 M with human dermal papilla cells in an in vitro impedance assay. […] Three independent experiments were performed.
More specifically, Human Hair Dermal Papilla Cells (HHDPCs) were expanded in specific culture medium (Promo Cell). After growing, the cells were seeded on 96 well plates coated with poly-L-Lysine at 20,000 cells per well. Cells were incubated during 24 hours at 37° C., 5% CO2. The day of the experiment, the culture medium was eliminated and replaced by HBSS containing BSA, 0.1% v/v. The cells were incubated in the CellKey system, for 4 hours at 28° C. before using to test compounds. Bimatoprost, the compound of Formula I, and/or the compound of Formula II were tested at […] from 10^−5 to 10^−12 M. The change in impedance was measured over 20 minutes. The background was subtracted and the impedance signal was normalized to the reference (bimatoprost) for the compound of Formula I and the compound of Formula II. The data presented is in triplicate and of three independent experiments.

[2] = test system: female C57BL/6J mice; test: in vivo mouse hair re-growth model, topical on shaved backs; settings: 0.03% topical in minoxidil formulation; for full hair re-growth: shaved backs of mice
Experimental: In general, the compound of formula I and bimatoprost were prepared in the minoxidil formulation (50% Propylene Glycol; 30% Ethyl Alcohol) at a concentration of 0.03% for both compounds. Both compounds were given topically to shaved backs of mice (as described in Khidhir et al. FASEB J. 2013 27(2):557-567).
More specifically, female C57BL/6J mice (cat. no. 000664; Jackson Laboratory, Bar Harbor, Me., USA), aged 7 weeks, were randomly distributed into 4 groups to avoid any sibling bias and housed in groups of 5 with standard diet food pellets and water available ad libitum. […] From the next day, termed d 0 (zero), each mouse was treated topically with either the vehicle alone (ethanol:propylene glycol:water 3:5:2) or 0.03, 0.10, or 0.30% bimatoprost in the vehicle for d 14; 10 mice were used for each condition. The appropriate solution (70 μl) was rubbed gently into the dorsal skin of each mouse daily; new gloves were worn for each treatment type. Hair growth was recorded daily for each animal for d 42, and dorsal photographs were taken at d 0, 7, 14, 17, 21, 24, 28, 31, 35, and 42. […] To calculate mean values, the first day of growth was designated as d 43 for any mouse showing no hair growth signs by the last day. The day when the shaved dorsal area was fully covered with new black hairs, i.e., there was no pink skin remaining and no visible difference in hair length to the adjacent unshaved areas, was also recorded. This assay has been successfully used to evaluate compounds that cause hair growth (see, e.g., Khidhir et al. FASB J. 2013, 27, 557-567; Plikus et al. J. Invest. Dermatol. 2008, 128, 1071-1080).

[3] = test system: prostamide receptors on human pre-adipocytes; test: xCelligence impedance assay on pre-adipocytes; format: cell-based; settings: for EC50: 20 min, human pre-adipocytes, 7 concentrations (10^−5 to 10^−9 M), signal measured for 20 minutes; for stimulation of prostamide receptors on human pre-adipocytes: xCelligence impedance assay; for potency relative to bimatoprost on human pre-adipocytes: comparison of the EC50 values of Table 1
Experimental: In this example it is shown that the compounds of Formulas I and II stimulates pre-adipocytes. In general, the compounds of Formulas I and II and bimatoprost were tested in the xCelligence impedance assay.
More specifically, pre-adipocytes were purchased from Lonza. Cells were expanded in Pre-adipocyte maintenance medium (Lonza, Switzerland). Once expanded, 10,000 cells per well were plated into xCelligence 96-well plates and incubated at 37° C. for 72 hours until the impedance signal normalized. Once normalized, media was switched to serum-free pre-adipocyte media (PDM-2) for 2 hours at 37° C. Once the signal stabilized for 30 minutes, compounds were added at 7 concentrations (10^−5 to 10^−9 M) and the signal measured for 20 minutes. The change in impedance was normalized to the background reading (buffer alone) and the EC50 calculations were determined using prism software.

[4] = body weight gain in rats on daily oral gavage for 26 weeks; format: in vivo, rats (Hsd: Sprague Dawley)
Experimental: In this example it is shown that the compound of Formula I when administration orally daily results in reduction in weight gain and lower mean body weights. In general males rats (n=17-20) and female rats (n=17-20) were administered orally (by gavage) daily for 6 months at the doses indicated below.
More specifically, male and female rats (Hsd: Sprague Dawley) were assigned to four groups and administered test article formulations (0.03, 0.3, or 5 mg/kg/day compound of Formula I) or vehicle control article (0 mg/mL [0%] compound of Formula I [placebo] containing 3% hydroxypropyl-β-cyclodextrin [30 mg/mL (150 mg/kg/day)] and 10 mM phosphate buffered saline) via oral gavage once daily for 26 weeks at a volume of 5 mL/kg. Animals were sacrificed at the end of the dosing phase (up to 15 animals/sex/group) or at the end of the 4-week recovery phase (5 animals/sex/group in dose groups given vehicle control article and 5 mg/kg/day the compound of Formula I). These animals were on a restricted diet due to the length of the study. Weights were measured once per week.

[5] = 5 mg/kg/day oral gavage daily for 6 months, p<0.05

Compound | change in impedance (agonist response) on human dermal papilla cells [1] | start of hair re-growth [2] | full hair re-growth [2] | EC50 [3] | stimulation of prostamide receptors on human pre-adipocytes [3] | potency relative to bimatoprost on human pre-adipocytes [3] | weight gain, female rats ([4]; 0.3 mg/kg/day oral gavage daily for 6 months, p<0.05) | weight gain, female rats [4, 5] | weight gain, male rats [4, 5] | reversibility of the weight effect after administration ceased ([4]; 4-week recovery phase after 5 mg/kg/day) | start of the decrease in body weight gain ([4]; daily oral administration, male and female rats, persisted up to 183 days)
CCNC(=O)CCC/C=C\C[C@@H]1[C@@H](/C=C/[C@@H](O)CCc2ccccc2)[C@H](O)C[C@@H]1O [Bimatoprost, bimatoprost, reference compound] | reduction in impedance; also recorded: shows activity | accelerates both time to start and full hair re-growth | accelerates both time to start and full hair re-growth | 784 nM | stimulate prostamide receptors | – | – | – | – | – | –
NC(=O)CCC/C=C\C[C@@H]1[C@@H](/C=C/[C@@H](O)CCc2cc(Br)sc2Br)[C@H](O)C[C@@H]1O [Formula II] | do not show activity | – | – | 11.7 nM | stimulate prostamide receptors | relatively more potent than bimatoprost | – | – | – | – | –
NC(=O)CCC/C=C\C[C@@H]1[C@@H](/C=C/[C@@H](O)CCc2cc(Cl)sc2Cl)[C@H](O)C[C@@H]1O [Formula I] | did not produce any detectable effect; also recorded: do not show activity | appears to boost the start to hair re-growth | does not result in full hair re-growth | 10.7 nM | stimulate prostamide receptors | relatively more potent than bimatoprost | inhibited weight gain | inhibited weight gain | inhibited weight gain | somewhat reversible | 14 days

Reference: patent US10117877B2, “Methods for fat reduction” (ALLERGAN, INC., priority 2015, dated 2018)
